Literature values, collected in paper PMC12080252, “Daphnia magna as an Alternative Model for (Simultaneous) Bioaccumulation and Chronic Toxicity Assessment—Controlled Exposure Study Indicates High Hazard of Heterocyclic PAHs” (Environmental Science & Technology, 2025).
Where two headings read alike, the source gives them in different places.

Columns and labels:
fish = details: cited from earlier work
[1] = Table S10; ref SI ref 23 (UK Environment Agency Report); cited from earlier work
D. magna or D. pulex = details: cited from earlier work; for half-life / log k2: D. magna or D. pulex, ref SI refs 8, 10; for accumulation in water fleas: compared with fish

c1ccc2c(c1)Oc1ccccc1O2 [dibenzo[1,4]dioxane]
bioaccumulation in fish (fish): high bioaccumulation in fish

Clc1cc2c(oc3c(Cl)c(Cl)c(Cl)cc32)c(Cl)c1Cl [2,3,4,6,7,8-Hexachloro dibenzofuran]
half-life (fish; fish, Table S10, ref SI ref 23): 166.36 h
log BCFL5% (fish; fish, Table S10, ref SI ref 23): 3.69
log k2 (fish; fish, Table S10, ref SI ref 23): -2.38 h-1
log KOW [1]: 7.30

c1ccc2c(c1)ccc1c3ccc4ccccc4c3[nH]c21 [dibenzocarbazole, 13H-dibenzo[a,i]carbazole]
bioaccumulation in fish (fish): high bioaccumulation in fish
half-life (D. magna or D. pulex): 9 h
log k2 (D. magna or D. pulex): -1.11 h-1
accumulation in water fleas (D. magna or D. pulex): accumulate even more in water fleas

COP(=S)(OC)Oc1ccc(SC)c(C)c1 [O,O-Dimethyl O-[3-methyl-4-(methylthio)phenyl]ester phosphorothioic acid]
log KOW [1]: 4.17

c1cc2cccc3c4cccc5cccc(c(c1)c23)c54 [perylene]
half-life (D. magna or D. pulex): 5.02 h
log k2 (D. magna or D. pulex): -0.86 h-1

Brc1ccc(Br)c(-c2cc(Br)ccc2Br)c1 [2,2',5,5'-tetra bromobiphenyl]
half-life (fish; fish, Table S10, ref SI ref 23): 1697.50 h
log BCFL5% (fish; fish, Table S10, ref SI ref 23): 4.86
log k2 (fish; fish, Table S10, ref SI ref 23): -3.39 h-1
log KOW [1]: 6.50

Phenol, 4-nonyl-, branched,
half-life (fish; fish, Table S10, ref SI ref 23): 9.90 h
log BCFL5% (fish; fish, Table S10, ref SI ref 23): 2.58
log k2 (fish; fish, Table S10, ref SI ref 23): -1.15 h-1
log KOW [1]: 5.92

c1ccc2c(c1)Cc1c-2ccc2ccccc12 [Benzofluorene, benzo[a]fluorene]
body burden (D. magna or D. pulex; D. magna): 17600 µg/kg
log BAF*L5% (D. magna or D. pulex; D. magna): 4.09 L kg^-1 lipid

c1ccc2cc3c(ccc4ccccc43)cc2c1 [benz[a]anthracene]
log KOW [1]: 5.76

c1ccc2c(c1)Sc1ccccc1S2 [thianthrene]
bioaccumulation in fish (fish): high bioaccumulation in fish

Cc1c2ccccc2cc2ccccc12 [9-methyl-anthracene]
half-life (D. magna or D. pulex): 4.8 h
log k2 (D. magna or D. pulex): -0.84 h-1

Clc1cc2c(oc3cc(Cl)c(Cl)c(Cl)c32)c(Cl)c1Cl [1,2,3,6,7,8-Hexachloro dibenzofuran]
half-life (fish; fish, Table S10, ref SI ref 23): 213.28 h
log BCFL5% (fish; fish, Table S10, ref SI ref 23): 3.65
log k2 (fish; fish, Table S10, ref SI ref 23): -2.49 h-1
log KOW [1]: 7.30

c1ccc2c(c1)ccc1c3ccccc3sc21 [Benzo[b]naphtho[2,1-d]thiophene]
accumulation in water fleas (D. magna or D. pulex): accumulate even more in water fleas

c1ccc2ncccc2c1 [quinoline]
BCF (M of several values) (fish; in vivo): 2.5
log BCFL5% (fish; in vivo): 1.92

c1ccc2cc3c(cc2c1)sc1ccccc13 [benzo[b]naphtho[2,3-d]thiophene]
bioaccumulation in fish (fish): high bioaccumulation in fish

Clc1cc2oc3c(Cl)c(Cl)c(Cl)cc3c2cc1Cl [2,3,4,7,8-Pentachloro dibenzofuran]
log KOW [1]: 6.64

c1ccc2cnccc2c1 [isoquinoline]
half-life (D. magna or D. pulex): 0.04 h
log k2 (D. magna or D. pulex): 1.26 h-1

COc1ccc(C(c2ccc(OC)cc2)C(Cl)(Cl)Cl)cc1 [Methoxychlor]
accumulation in fish versus invertebrates (Figure 3B) (fish; in vivo): accumulating in invertebrates but not in fish

CCCCCCCCCCCCCOCCOCCOCCOCCOCCOCCOCCOCCO [Octaethylene glycol monotridecyl ether]
half-life (fish; fish, Table S10, ref SI ref 23): 1.65 h
log BCFL5% (fish; fish, Table S10, ref SI ref 23): 1.69
log k2 (fish; fish, Table S10, ref SI ref 23): -0.38 h-1

ClC(Cl)=C(c1ccc(Cl)cc1)c1ccc(Cl)cc1 [pp’DDE]
BCF (M of several values) (fish; fish, ref SI refs 4, 7, 12): 54250

Brc1cc(Br)c(-c2ccccc2)c(Br)c1 [2,4,6-tri bromobiphenyl]
log KOW [1]: 6.03
